Results on seven compounds are retold here after PMC9852552, “Emission of floral volatiles is facilitated by cell-wall non-specific lipid transfer proteins” (Nature Communications, 2023).

“And” between values parts separate entries of the source, which are not always exact repeats. Equal entries are not always repeated.

For one assay, the target named is recombinant PhnsLTP3. Kind of assay: TNS displacement assay with recombinant PhnsLTP3. The format is binding, Petunia hybrida. The conditions noted are these: PhnsLTP3 1 µM, TNS 3 µM; for Kd: non-linear fitting to Michaelis-Menten equation (one binding site), means ± S.E., n = 3, read-out: dissociation constant Kd (PhnsLTP3); for Percentage fluorescence quenched: three biological replicates (c2-c4). The procedure:
(§1) To directly test whether PhnsLTP3 can bind petunia VOCs, in vitro displacement assays were performed using the recombinant PhnsLTP3 protein and fluorescent 6-(p-toluidino)−2-naphthalenesulfonate (TNS) in the presence of petunia volatiles. […] TNS fluoresces strongly when bound to the hydrophobic regions of the protein, while it has weak fluorescence in an aqueous solution. […] Potential ligands of the protein will displace the bound TNS from the hydrophobic protein pocket into the aqueous environment leading to a decrease in the fluorescent signal, which was used to calculate the dissociation constant of the protein with ligand. […] To test whether PhnsLTP2 and PhnsLTP3 can bind other VOCs, we assayed the terpenoids: limonene, linalool, and nerolidol, as well as methyl jasmonate in TNS displacement assays. Both PhnsLTP2 and PhnsLTP3 were able to bind tested volatile compounds with Kds in the micromolar range (Supplementary Figs. 16 and 17).
Fig. 5 Binding kinetics of recombinant PhnsLTP3 with VOCs emitted by petunia flowers. TNS displacement assays were performed at fixed concentrations of PhnsLTP3 (1 µM) and TNS (3 µM) and the fluorescence was measured before and after the tested compounds were added at various concentrations. The results are expressed as percentage of fluorescence quenched with respect to the concentration of added compound. The binding curves were obtained by non-linear fitting to the Michaelis-Menten equation (solid line in the graph) and the dissociation constants Kd [µM] were obtained. […] All data are means ± S.E. (n = 3 biological replicates).
(§2) The fluorescence-based-binding assays were performed largely according to previous publications[12],[52] with slight modifications. […] All mixtures were excited at 320 nm, and the fluorescence emission at 437 nm was recorded using a plate reader (SpectraMax iD3, Molecular Devices) at equilibrium after 5 min of incubation at 25 °C giving the background fluorescence Fmix0 and FTNS0 . The tested ligands dissolved in 2 µL DMSO were then added to the mixtures and TNS only to different final concentrations, and the fluorescence emissions were recorded at equilibrium after 5 min of incubation ( Fmixligand and FTNSligand ). To account for the change in the TNS fluorescence intensity upon adding the solvent DMSO, the background fluorescence of TNS ( FTNSsol ) as well as each PhnsLTP with TNS ( Fmixsol ) were measured. The ratios RTNS=FTNSsol/FTNS0 and Rmix=Fmixsol/Fmix0 were calculated to calibrate the fluorescence. Three measurements were taken for each concentration. The results were expressed as a percentage of fluorescence quenched Fmixligand/Rmix−FTNSligand/RTNS/Fmix0−FTNS0×100% . The corresponding dissociation constants kd were obtained by non-linear regression fitting of the binding kinetics to the Michaelis-Menten equation.
The binding curves of PhnsLTP3 with various VOC compounds were obtained by non-linear fitting to the one-binding-site (Eq. (1)) and two-binding-site (Eq. (2)) models. The equations assume that the ligand binds to multiple independent binding sites and that the binding to each site follows the law of mass action:1 %offluorescencequenched=Bmax×[TNS]/kd+[TNS] 2 %offluorescencequenched=Bmax1×[TNS]/kd1+[TNS]+Bmax2×[TNS]/kd2+[TNS] […]
PhnsL TP3 (1 µ M)and TNS (3 µ M)and the fluorescence was measured before and after the tested compounds were added at various concentrations. The results are expressed as percentage of fluorescence quenched with respect to the concentration of added compound.
The binding curves were obtained by non-linear fitting to the Michaelis-Menten equation (solid line in the graph) and the dissociation constants Kd [µ M]were obtained. All data are means ±S.E. (n = 3 biological replicates).
Supplementary Figure 25 | Analysis of number of binding sites of PhnsLTP3.
TNS displacement assay was performed at fixed concentrations of PhnsLTP3 (1 µM) and TNS (3 µM) and the fluorescence was measured before and after methyl […]

The target in another assay is recombinant PhnsLTP2. Description: TNS displacement assay with recombinant PhnsLTP2. The format is binding, Petunia hybrida. The settings on record: for Kd: PhnsLTP2 1 µM, TNS 3 µM, non-linear fitting to Michaelis-Menten equation, means ± S.E., n = 3, read-out: dissociation constant Kd (PhnsLTP2). The procedure:
as §1, §2
Supplementary Figure 16 | Binding kinetics of recombinant PhnsLTP2 with phenylpropanoids/benzenoids by petunia flowers, terpenoids and methyl jasmonate.
TNS displacement assays were performed at fixed concentrations of PhnsLTP2 (1 µM) and TNS (3 µM) and the fluorescence was measured before and after the tested compounds were added at various concentrations. The results are expressed as percentage of fluorescence quenched with respect to the concentration of added compound. The binding curves were obtained by non-linear fitting to the Michaelis-Menten equation (solid line in the graph) and the dissociation constants Kd [µM] were obtained. Phenylacetaldehyde, eugenol, and […]
corresponding binding curves. All data are means ±S.E. (n = 3 biological replicates).

Another assay relates to petunia flowers. Description: Phenylalanine feeding: total VOC emission and total pools. The format is in vivo, Petunia hybrida. The conditions noted are these: for Total pools / Total emission: biological replicates 1-3; for absolute increase over 2 h in VOC emission rate upon Phe feeding: 150 mM Phe, 19:00 to 22:00 h. From the text: Such reduction in VOC emission could be the result of diminished VOC transport across the cell wall, decreased VOC biosynthesis or both. […] Recently, we have shown that the VOC redistribution and reduction of their levels in the cuticle decrease their release from the cell and reduce carbon flux to Phe, which is the precursor for petunia VOCs[8]. […] Thus, to distinguish between the contribution of VOC transport and Phe limitation in VOC biosynthesis, control and PhnsLTP3-RNAi-R5 flowers were fed with Phe, and total VOC emission and total pools were measured from 19:00 to 22:00 h (Supplementary Fig. 20).
Floral volatile emission was analyzed by dynamic headspace collection of volatiles at 25 °C on columns containing 20 mg Porapak Q (80–100 mesh) (Sigma-Aldrich) and analyzed on an Agilent 6890N-5975B GC–MS system as described previously[7],[8],[43] with minor modifications. Briefly, emitted volatiles were collected from detached transgenic and wild-type flowers from 19:00 to 22:00 h on day 2 postanthesis. Adsorbed volatiles were eluted from collection columns with 280 μL dichloromethane containing 52 nmol of naphthalene as the internal standard. For analysis of total petal pools, 0.5 g of petal tissue from transgenic and control plants was collected at 22:00 h on day 2 postanthesis, ground to a fine powder in liquid nitrogen, and total petal pools were extracted in 5 mL of dichloromethane containing 52 nmol of internal standard (naphthalene) for 12 h at −20 °C. Samples were then warmed up, vortexed and concentrated to 200 μL under a stream of nitrogen gas before injection into GC–MS (Agilent 6890N-5975B). All GC–MS data were collected and analyzed using Agilent MSD ChemStation F.01.03.2357 software. For phenylalanine feeding, flowers from wild type and PhnsLTP3-RNAi were harvested and placed in 150 mM of phenylalanine solution. Emitted volatiles and their total petal pools were sampled every hour from 16:00 till 19:00 h and from 19:00 till 22:00 h and analyzed as described above.
Supplementary Figure 20 | Total VOC emission and their total pools in control and PhnsLTP3-RNAi petunia flowers fed with 150 mM Phe. Total VOC emission (a) and total pools (b) in wild-type (WT) and PhnsLTP3-RNAi-R5 line fed with 150 mM Phe from 19:00 to 22:00 h. Data are means ± S.E. (n = 3 biological replicates). […]
determined by two-way ANOV Awith P = 0.0086. […]

On to `OCCc1ccccc1` [2-Phenylethanol], for which the Kd at recombinant PhnsLTP3 worked out at 395 ± 131 µM. In addition, the Percentage fluorescence quenched with recombinant PhnsLTP3 (VOC concentration 3 µM) was 8.20% and 0.13% and 7.39%; in the assay on recombinant PhnsLTP3 (VOC concentration 30 µM), 14.26% and 5.61% and 8.61%; in the assay on recombinant PhnsLTP3 (VOC concentration 300 µM), 15.48% and 18.99% and 19.97%; in the assay on recombinant PhnsLTP3 (VOC concentration 1500 µM), 39.03% and 34.28% and 33.24%; in the assay with recombinant PhnsLTP3 (VOC concentration 3000 µM), 41.03% and 32.70% and 40.07%.
Consider `C=C(C)[C@H]1CC=C(C)CC1` [Limonene], for which the Kd on recombinant PhnsLTP3 stood at 26.7 ± 14.2 µM; at recombinant PhnsLTP2, 126 ± 43.6 µM.
Take `OCc1ccccc1` [Benzyl alcohol]: the Kd on recombinant PhnsLTP3 is 208 ± 74.2 µM; at recombinant PhnsLTP2 it was 399 ± 261 µM. Moreover, the Percentage fluorescence quenched in the assay with recombinant PhnsLTP3 (VOC concentration 30 µM) is 3.06% and 3.64% and 9.84%; in the assay on recombinant PhnsLTP3 (VOC concentration 300 µM), 23.75% and 24.96% and 17.77%; with recombinant PhnsLTP3 (VOC concentration 1500 µM), 32.13% and 29.61% and 29.01%; in the assay on recombinant PhnsLTP3 (VOC concentration 3000 µM), 34.41% and 38.89% and 34.26%.
Take `C=CC(C)(O)CCC=C(C)CCC=C(C)C` (mixture of isomers) [Nerolidol]: the results for the Kd at recombinant PhnsLTP3 and on recombinant PhnsLTP2 were 2.4 ± 0.4 µM and 21.4 ± 4.5 µM, respectively. Besides, the “Percentage fluorescence quenched (%)” value with recombinant PhnsLTP2 (VOC concentration 30 µM, biological replicates 1-3, Supplementary Figure 17) is 79.85% and 81.10% and 78.83%.
In the case of `O=Cc1ccccc1` [Benzaldehyde], the dissociation constant Kd on recombinant PhnsLTP3 stood at 276 ± 59.8 µM; at recombinant PhnsLTP2 it was 344 ± 80.7 µM. In addition, the Percentage fluorescence quenched is 3.47% and 6.56% and 12.79% with recombinant PhnsLTP3 (VOC concentration 3 µM); 19.94% and 11.97% and 16.71% with recombinant PhnsLTP3 (VOC concentration 30 µM); 45.75% and 56.38% and 51.72% with recombinant PhnsLTP3 (VOC concentration 300 µM); 74.25% and 79.55% and 80.00% in the assay on recombinant PhnsLTP3 (VOC concentration 1500 µM); 86.84% and 86.38% and 86.21% with recombinant PhnsLTP3 (VOC concentration 3000 µM).
`COc1cc(C=O)ccc1O` [Vanillin]: the dissociation constant Kd on recombinant PhnsLTP3 was 26.3 ± 10.4 µM; on recombinant PhnsLTP2, 114 ± 12.9 µM. Moreover, the Percentage fluorescence quenched was 5.78% and 5.07% and 1.21% in the assay on recombinant PhnsLTP3 (VOC concentration 3 µM); 6.62% and 14.22% and 7.63% with recombinant PhnsLTP3 (VOC concentration 30 µM); 35.76% and 34.45% and 15.77% with recombinant PhnsLTP3 (VOC concentration 300 µM); 17.05% and 24.17% and 26.21% in the assay with recombinant PhnsLTP3 (VOC concentration 1500 µM); 22.96% and 20.23% and 21.72% in the assay with recombinant PhnsLTP3 (VOC concentration 3000 µM).
For the compound `N[C@@H](Cc1ccccc1)C(=O)O` [Phe, L-phenylalanine], the Total pools with petunia flowers (PhLTP3-RNAi-5 + Phe, 19:00 h) was 440.17 nmol g FW-1 and 381.25 nmol g FW-1 and 288.77 nmol g FW-1; in the assay with petunia flowers (PhLTP3-RNAi-5 + Phe, 20:00 h) it was 756.94 nmol g FW-1 and 1050.75 nmol g FW-1 and 883.29 nmol g FW-1; in the assay on petunia flowers (PhLTP3-RNAi-5 + Phe, 21:00 h), 1249.12 nmol g FW-1 and 1300.32 nmol g FW-1 and 829.02 nmol g FW-1; with petunia flowers (PhLTP3-RNAi-5 + Phe, 22:00 h) it was 913.29 nmol g FW-1 and 1187.03 nmol g FW-1 and 1389.76 nmol g FW-1; in the assay with petunia flowers (WT + Phe, 19:00 h), 363.34 nmol g FW-1 and 564.43 nmol g FW-1 and 340.47 nmol g FW-1; in the assay on petunia flowers (WT + Phe, 20:00 h), 885.56 nmol g FW-1 and 1126.01 nmol g FW-1 and 1295.32 nmol g FW-1. Also, the Total pools is 1190.78 nmol g FW-1 and 1426.22 nmol g FW-1 and 956.14 nmol g FW-1 in the assay with petunia flowers (WT + Phe, 21:00 h); 1455.77 nmol g FW-1 and 972.77 nmol g FW-1 and 1086.37 nmol g FW-1 in the assay with petunia flowers (WT + Phe, 22:00 h). The Total emission is 837.22 nmol g FW-1 h-1 and 1059.64 nmol g FW-1 h-1 and 828.44 nmol g FW-1 h-1 in the assay on petunia flowers (PhLTP3-RNAi-5 + Phe, 20:00 h); 2356.48 nmol g FW-1 h-1 and 1887.30 nmol g FW-1 h-1 and 1311.64 nmol g FW-1 h-1 in the assay on petunia flowers (PhLTP3-RNAi-5 + Phe, 21:00 h); 2845.33 nmol g FW-1 h-1 and 2241.14 nmol g FW-1 h-1 and 2347.25 nmol g FW-1 h-1 in the assay on petunia flowers (PhLTP3-RNAi-5 + Phe, 22:00 h); 1481.84 nmol g FW-1 h-1 and 2333.99 nmol g FW-1 h-1 and 1404.14 nmol g FW-1 h-1 with petunia flowers (WT + Phe, 20:00 h); 1814.62 nmol g FW-1 h-1 and 2602.15 nmol g FW-1 h-1 and 2554.66 nmol g FW-1 h-1 in the assay on petunia flowers (WT + Phe, 21:00 h); 3087.41 nmol g FW-1 h-1 and 2626.99 nmol g FW-1 h-1 and 3838.92 nmol g FW-1 h-1 in the assay on petunia flowers (WT + Phe, 22:00 h). For the same compound, the “absolute increase over 2 h in VOC emission rate upon Phe feeding” value with petunia flowers (PhnsLTP3-RNAi-R5 flowers) was determined as 1569 ± 76 nmol g FW^−1; in the assay on petunia flowers (wild-type flowers) it was 1444 ± 298 nmol g FW^−1.

The Kd is a measure of binding affinity in units of concentration.
